*1 amine or outer side, *2 acyl side, *3 side chain or, on linkers, in order; H or OH if unused. Where a SMILES comes first, the peptide text is derived from it. Bridges are numbered along the chain shown (N, C = ends). [ ]: non-standard residue; d: D form. Biphenyl(4,4'-CH2)2 = c1cc(-c2ccc(C[*:2])cc2)ccc1C[*:1]; Pro(trans-4-F) = O=C(O)[C@@H]1C[C@@H](F)CN1; Phe(4-I) = N[C@@H](Cc1ccc(I)cc1)C(=O)O
Key:
[1] = target: T1, α-chymotrypsin (bovine pancreas) (Bos taurus, UniProt P00766); test: Peptide enzymatic degradation assay, α-chymotrypsin; assay type: in vitro ADME; conditions: as E58; for stability to α-chymotrypsin (in words): compared with WT sequence
T1 construct: purchased Sigma; host or cells: bovine pancreas
Procedure: (§1) into individual aliquots at -20 °C. […]
(§2) a concentration of 1 mg mL−1 concentration. The digestion samples were immediately prepared by mixing […]
(§3) were then incubated at 25 °C for 6 hours. […]
(§4) thermo-shaker for 6 hours. […]
(§5) presence of enzyme (t=0). […]
(§6) r = r଴ + A x e భ Eq. (SI - 10)
(§7) τ = tଵ ln(2) Eq. (SI - 11)
(§8) In all cases, control samples were […]
(§9) replicates and error bars indicating the corresponding SD. […]

[2] = target: T2, Aurora-A122-403-C290A/C393A (Homo sapiens, UniProt O14965, C290A/C393A); test: Isothermal titration calorimetry (ITC); assay type: binding; conditions: for -TΔS° / Kd / ΔG° / ΔH° / N (stoichiometry): ITC as E13
T2 construct: Human Aurora-A kinase domain 122-403 wild-type or C290A/ C393A mutant; His tag (pET30TEV vector) (N, cleaved yes); made in house; host or cells: E. coli RIL, co-expressed with lambda phosphatase (Aurora-A); tracer by solid phase synthesis
T2 sequence (O14965 122-403 C290A/C393A): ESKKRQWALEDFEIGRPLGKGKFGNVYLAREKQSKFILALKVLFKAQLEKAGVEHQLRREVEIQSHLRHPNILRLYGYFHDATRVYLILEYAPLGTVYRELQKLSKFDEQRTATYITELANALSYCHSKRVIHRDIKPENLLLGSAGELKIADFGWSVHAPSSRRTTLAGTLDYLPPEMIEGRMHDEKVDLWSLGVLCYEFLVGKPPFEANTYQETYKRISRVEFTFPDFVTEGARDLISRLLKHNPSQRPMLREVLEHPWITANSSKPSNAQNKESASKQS
Procedure: Isothermal titration calorimetry (ITC). ITC experiments were carried out using a MicroCal PEAQ-ITC system (Malvern Panalytical) at 25 °C. A stock solution of Aurora-A 122-403-290A/C393A was dialyzed into ITC buffer overnight (25 mM Tris buffer, pH= 7.5; 150 mM NaCl; 5 mM MgCl2; 5 % v/v glycerol), and the same buffer was employed to resuspend a solid portion of the testing peptides. For each experiment, initially, the cell was filled with 275 µl of Aurora-A122-403-290A/C393A (46 μM) and the syringe was loaded with the corresponding peptide at 1.25 mM concentration. An initial injection of 0.5 μL was then followed by 13 injections of 3 μL, every 150 s, with a constant syringe rotation speed of 750 rpm throughout. The signal for the enthalpy of dilution of each peptide into buffer was independently measured in a control titration experiment and then subtracted from the experimental binding traces. The Kd, ΔG°, ΔH° and -TΔS° values were determined via the MicroCal PEAQ-ITC analysis software (Malvern Paranalytical) using a single-site binding model. […]

Trypsin [3] = test: Peptide enzymatic degradation assay, trypsin; conditions: as E60, compared with WT TACC3 518-532
[4] = target: T2, Aurora-A122-403-C290A/C393A; test: Competition FA assay against FAM-Ahx-TACC3 522-536 tracer; assay type: binding; conditions: SD; read-out: IC50
[5] = target: T3, Aurora-A122-403-C290A/C393A (N-Myc/Aurora-A interaction) (Homo sapiens, UniProt O14965, C290A/C393A); test: FA competition assay against FAM-Ahx-N-Myc61-89; assay type: binding; conditions: SD; read-out: IC50 (N-Myc displacement)
T3 construct: Human Aurora-A kinase domain 122-403 wild-type or C290A/ C393A mutant; His tag (pET30TEV vector) (N, cleaved yes); made in house; host or cells: E. coli RIL, co-expressed with lambda phosphatase (Aurora-A)
T3 sequence (O14965 122-403 C290A/C393A): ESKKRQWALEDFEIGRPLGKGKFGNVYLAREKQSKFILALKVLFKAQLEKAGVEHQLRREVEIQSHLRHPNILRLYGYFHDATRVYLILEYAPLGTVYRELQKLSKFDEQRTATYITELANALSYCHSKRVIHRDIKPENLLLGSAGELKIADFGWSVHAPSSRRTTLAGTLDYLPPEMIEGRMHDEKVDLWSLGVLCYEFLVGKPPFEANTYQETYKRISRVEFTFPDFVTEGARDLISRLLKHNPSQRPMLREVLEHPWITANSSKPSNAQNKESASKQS
Procedure: (1 picture or pasted object on this page, not shown here)
FA competition assays were performed using the same plates and buffer as described above, with the initial […]
14 points in a 1/2 regime. […]
after 4 h of incubation to enable appropriate sample equilibration. To prevent sample oxidation, when sulfhydryl peptides were analyzed DTT was added to the buffer (5 mM). In competition mode, the average anisotropy and the average standard deviation of the values derived from equation SI-6 were calculated […]
When using peptides for which full
For consistency, all the data […]
indicating the corresponding SD.
Molecular dynamics (MD) analyses: All peptide–protein complexes were subjected to duplicate MD simulations using YASARA structure.13 Starting from the reported x-ray crystal structure of one molecule of […]
modifications were introduced by direct replacement of the relevant atoms within the structure. When needed, biphenyl constraints were modeled in YASARA by swapping the pertinent amino acids for cysteines and connecting them to biphenyl- fragments. […]
crystal structure), and then minimised structures were generated using the energy minimization function with default settings. The modelled complexes were subjected to MD simulations using YASARA structure macro for fast MD run (www.yasara.org/md_runfast.mcr).14 Briefly, the AMBER14 forcefield was used and […]

Trypsin [6] = conditions: pH 7.5
[7] = Peptide enzymatic degradation assay, α-chymotrypsin; assay type: in vitro ADME, bovine; conditions: α-chymotrypsin (bovine pancreas), peptide 100 µM, peptide/enzyme molar ratio [P]/[E]= 25, HEPES 25 mM, pH 7.5, 25 °C, 6 hours; RP-HPLC peak area, exponential decay fit; three independent experiments, mean ± SD; SD; read-out: t1/2 in the presence of α-chymotrypsin
Procedure: as §1, §2, §3, §4, §5, §6, §7, §8, §9

Aurora-A 122-403 [8] = target: T4, Aurora-A 122-403 (Homo sapiens, UniProt O14965); test: fluorescence anisotropy competition against N-Myc
T4 chain: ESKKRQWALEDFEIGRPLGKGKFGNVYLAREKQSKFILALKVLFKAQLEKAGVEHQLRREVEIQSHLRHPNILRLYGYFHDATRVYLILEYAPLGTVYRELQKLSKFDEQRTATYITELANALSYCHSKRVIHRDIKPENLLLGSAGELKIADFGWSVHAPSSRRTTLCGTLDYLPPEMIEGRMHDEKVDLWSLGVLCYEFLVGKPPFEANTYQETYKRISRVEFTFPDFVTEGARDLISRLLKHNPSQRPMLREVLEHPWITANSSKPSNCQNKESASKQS

Aurora-A 122-403 [9] = target: T4, Aurora-A 122-403; test: fluorescence anisotropy competition against TPX2
[10] = N unrestrained fit, single titration

## CC(=O)N[C@@H](CC(C)C)C(=O)N[C@@H](CCC(=O)O)C(=O)N[C@H]1CSCc2ccc(cc2)-c2ccc(cc2)CSC[C@@H](C(=O)N[C@@H](CC(=O)O)C(=O)N2C[C@H](F)C[C@H]2C(=O)N[C@@H](C)C(=O)N[C@@H](CCC(=O)O)C(=O)N[C@H](C(=O)N[C@@H](CC(C)C)C(N)=O)C(C)C)NC(=O)[C@H](Cc2ccc(I)cc2)NC(=O)[C@H](CO)NC(=O)[C@H](CCC(=O)O)NC(=O)[C@H](CCC(=O)O)NC(=O)[C@H](CCCCN)NC1=O [TACC3 518-532-L/R-Bph-IF/fP] (Ac-LECKEES[Phe(4-I)]CD[Pro(trans-4-F)]AEVL-NH2; linker 3-9 via Biphenyl(4,4'-CH2)2)
[1]; HPLC and LC/MS analysis
  time resistant to chymotrypsin with no cleavage by-products detected: ~ 6 hr
[1]
  stability to α-chymotrypsin (in words): increased resistance
[2]; N restrained fit, Run 1
  -TΔS°: -5.5 kcal/mol
  Kd: 5.6 µM
  ΔG°: -7.17 kcal/mol
  ΔH°: -1.65 kcal/mol
[2]; N restrained fit, Run 2
  -TΔS°: -5.33 kcal/mol
  Kd: 5.9 µM
  ΔG°: -7.15 kcal/mol
  ΔH°: -1.79 kcal/mol
[2]; N unrestrained fit, Run 1
  -TΔS°: -5.71 kcal/mol
  Kd: 4.6 µM
  N (stoichiometry): 1.06
  ΔG°: -7.29 kcal/mol
  ΔH°: -1.55 kcal/mol
[2]; N unrestrained fit, Run 2
  -TΔS°: -5.43 kcal/mol
  Kd: 5.5 µM
  N (stoichiometry): 1.02
  ΔG°: -7.17 kcal/mol
  ΔH°: -1.74 kcal/mol
[2]; ITC as E40, average of two independent titrations
  -TΔS: -5.43 kcal/mol
Trypsin [3]
  stability to trypsin (in words): increased resistance
[4]
  IC50: 17 ± 1 µM
[5]
  IC50: 28.3 ± 1.2 µM
Trypsin [6]
  t1/2 in the presence of trypsin: ≥ 330 min

## CC(=O)N[C@@H](CC(C)C)C(=O)N[C@@H](CCC(=O)O)C(=O)N[C@@H](CC(C)C)C(=O)N[C@@H](CCCCN)C(=O)N[C@@H](CCC(=O)O)C(=O)N[C@@H](CCC(=O)O)C(=O)N[C@H]1CSCc2ccc(cc2)-c2ccc(cc2)CSC[C@@H](C(=O)N[C@H](C(=O)N[C@@H](CC(C)C)C(N)=O)C(C)C)NC(=O)[C@H](C)NC(=O)[C@@H]2C[C@@H](F)CN2C(=O)[C@H](CC(=O)O)NC(=O)[C@H](CCCNC(=N)N)NC(=O)[C@H](Cc2ccc(I)cc2)NC1=O [TACC3 518-532-S/E-Bph-IF/fP] (Ac-LELKEEC[Phe(4-I)]RD[Pro(trans-4-F)]ACVL-NH2; linker 7-13 via Biphenyl(4,4'-CH2)2)
[7]
  half-life at 100 µM: 26 ± 2 min
[1]
  stability to α-chymotrypsin (in words): not protected
[2]; [10]
  -TΔS°: -4.47 kcal/mol
  Kd: 16.7 µM
  N (stoichiometry): 1.62
  ΔG°: -6.52 kcal/mol
  ΔH°: -2.06 kcal/mol
Trypsin [3]
  stability to trypsin (in words): only partially improved stability
Trypsin [3]; listed as S/E constrained variant
  stability to trypsin (in words): not protected
[4]
  IC50: 12 ± 1 µM

B1: TACC3 L/R-Bph-I/fP 518-532 (peptide)
chain: LELKEESFRDPAEVL
modifications: not fully specified; L520C/R526C biphenyl constraint, (4-I)Phe525, trans-(4-F)Pro528; Aurora-A C290A+C393A
Aurora-A 122-403 [8]
  IC50: 28 µM
Aurora-A 122-403 [9]
  IC50: > 200 µM

Source: article PMC11604048, “Constrained TACC3 peptidomimetics for a non-canonical protein–protein interface elucidate allosteric communication in Aurora-A kinase” (Chemical Science, 2024)
